Test results from PubChem BioAssay (NCI).
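Protocol summary: plate cells (96-well), add compound at 5 concentrations, incubate 48 h, interpolate endpoints linearly. GI50 = concentration required for 50% inhibition of growth. The concentration for full growth arrest is given as TGI.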

Experiments:
Experiment in all cases: NCI tumour cell line growth inhibition, 48 h
[1] = test system: RXF 393 renal
[2] = test system: NCI-H460 lung
[3] = test system: OVCAR-8 ovarian
[4] = test system: HCC-2998 colon
[5] = test system: SNB-19 CNS
[6] = test system: SK-OV-3 ovarian
[7] = test system: 786-0 renal
[8] = test system: UACC-257 melanoma
[9] = test system: NCI-H522 lung
[10] = test system: SF-268 CNS
[11] = test system: U251 CNS
[12] = test system: HS 578T breast
[13] = test system: UACC-62 melanoma
[14] = test system: DU-145 prostate
[15] = test system: UO-31 renal
[16] = test system: COLO 205 colon
[17] = test system: SK-MEL-2 melanoma
[18] = test system: HCT-15 colon
[19] = test system: CAKI-1 renal
[20] = test system: MALME-3M melanoma
[21] = test system: EKVX NSCLC
[22] = test system: NCI/ADR-RES ovarian
[23] = test system: IGROV1 ovarian
[24] = test system: RPMI-8226 leukemia
[25] = test system: HT29 colon
[26] = test system: K-562 leukemia
[27] = test system: NCI-H226 lung
[28] = test system: SF-295 CNS
[29] = test system: OVCAR-4 ovarian
[30] = test system: SK-MEL-28 melanoma
[31] = test system: NCI-H23 lung
[32] = test system: T-47D breast
[33] = test system: OVCAR-3 ovarian
[34] = test system: SNB-75 CNS
[35] = test system: SN12C renal
[36] = test system: A498 renal
[37] = test system: A549 NSCLC
[38] = test system: SW-620 colon
[39] = test system: TK-10 renal
[40] = test system: KM12 colon
[41] = test system: MDA-MB-231 breast
[42] = test system: MCF7 breast
[43] = test system: PC-3 prostate
[44] = test system: BT-549 breast
[45] = test system: SK-MEL-5 melanoma
[46] = test system: OVCAR-5 ovarian
[47] = test system: HOP-62 NSCLC
[48] = test system: HCT-116 colon
[49] = test system: ACHN renal
[50] = test system: CCRF-CEM leukemia
[51] = test system: MDA-MB-435
[52] = test system: SF-539 CNS
[53] = test system: HL-60(TB) leukemia
[54] = test system: MOLT-4 leukemia
[55] = test system: HOP-92 NSCLC
[56] = test system: SR leukemia
[57] = test system: M14 melanoma
[58] = test system: LOX IMVI melanoma

Work on COC(=O)C1C=CN(N(C)C)C2=C1C(=O)c1c(O)cccc1C2=O (stereo not given) yielded a TGI [1] of 14.1 µM, a TGI [2] of 3.03 µM and a TGI [3] of 7.4 µM. The TGI [4] was 3.67 µM, the TGI [5] was 5.58 µM and the TGI [6] was 22.7 µM. For the same molecule, the TGI [7] was 11.4 µM, the TGI [8] was 2.8 µM and the TGI [9] was 5.95 µM. For the same molecule, the TGI [10] was 17.3 µM, the TGI [11] was 11.8 µM and the TGI [12] was 7.58 µM. It also gave a TGI [13] of 2.37 µM, a TGI [14] of 2.96 µM and a TGI [15] of 15.8 µM. The TGI [16] was 3.66 µM, the TGI [17] was 7.81 µM and the TGI [18] was 5.16 µM. The TGI [19] was 5.7 µM, the TGI [20] was 2.93 µM and the TGI [21] was 11 µM. The TGI [22] was 6.47 µM, the TGI [23] was 5.63 µM and the TGI [24] was 5.97 µM. The TGI [25] was 3.61 µM, the TGI [26] was 52.1 µM and the TGI [27] was 3.94 µM. For the same molecule, the TGI [28] was 3.31 µM, the TGI [29] was 5.57 µM and the TGI [30] was 3.87 µM. The TGI [31] was 4.11 µM, the TGI [32] was 6.45 µM and the TGI [33] was 5.82 µM. It also gave a TGI [34] of 3.19 µM, a TGI [35] of 3.95 µM and a TGI [36] of 7.47 µM. It also gave a TGI [37] of 6.44 µM, a TGI [38] of 5.14 µM and a TGI [39] of 15 µM. It also gave a TGI [40] of 6.95 µM, a TGI [41] of 5.79 µM and a TGI [42] of 6.38 µM. For the same molecule, the TGI [43] was > 100 µM, the TGI [44] was 3.86 µM and the TGI [45] was 1.77 µM. It also gave a TGI [46] of 4.62 µM, a TGI [47] of 8.42 µM and a TGI [48] of 5.79 µM. For the same molecule, the TGI [49] was 12.4 µM and the TGI [50] was 5.04 µM.

C=Cc1c(C)c2cc3nc(cc4[nH]c(cc5nc(cc1[nH]2)C(C)=C5CCC(=O)O)c(CCC(=O)OC)c4C)[C@@]1(C)C3=CC=C(C(=O)OC)[C@H]1C(=O)OC gave a GI50 [51] of 0.357 µM, a TGI [51] of 1.34 µM and a GI50 [1] of 1.97 µM. The TGI [1] was 4.47 µM, the GI50 [6] was 1.85 µM and the TGI [6] was 3.54 µM. It also gave a GI50 [52] of 1.4 µM, a TGI [52] of 2.7 µM and a GI50 [13] of 1.37 µM. The TGI [13] was 2.8 µM, the GI50 [19] was 1.17 µM and the TGI [19] was 2.39 µM. It also gave a GI50 [21] of 2.1 µM, a TGI [21] of 5.38 µM and a GI50 [24] of 1.27 µM. For the same molecule, the TGI [24] was > 100 µM, the GI50 [30] was 1.51 µM and the TGI [30] was 3 µM. For the same molecule, the GI50 [32] was 1.48 µM, the TGI [32] was 4.53 µM and the GI50 [34] was 0.846 µM. For the same molecule, the TGI [34] was 2.18 µM, the GI50 [36] was 1.19 µM and the TGI [36] was 2.52 µM. The GI50 [53] was 2.09 µM, the TGI [53] was 5.7 µM and the GI50 [43] was 1.43 µM. It also gave a TGI [43] of 6.69 µM, a GI50 [44] of 1.24 µM and a TGI [44] of 2.8 µM. The GI50 [45] was 1.7 µM, the TGI [45] was 3.15 µM and the GI50 [46] was 1.59 µM. The TGI [46] was 3.07 µM, the GI50 [49] was 1.34 µM and the TGI [49] was 2.62 µM. The GI50 [54] was 0.388 µM, the TGI [54] was 1.89 µM and the GI50 [50] was 0.829 µM. The TGI [50] was 3.68 µM.

For C#CCN(CC#C)C(=O)C(=O)c1c[nH]c2ccc(OC)cc12, the TGI [51] was 35.4 µM, the TGI [1] was 29.8 µM and the TGI [2] was 29.7 µM. For the same molecule, the TGI [3] was 60.5 µM, the TGI [4] was 31 µM and the TGI [5] was 36.1 µM. The TGI [6] was 36.5 µM, the TGI [7] was 31 µM and the TGI [55] was 33.2 µM. The TGI [52] was 29.2 µM, the TGI [8] was 34 µM and the TGI [10] was > 100 µM. For the same molecule, the TGI [11] was 27.6 µM, the TGI [12] was 37.6 µM and the TGI [13] was 42.7 µM. The TGI [56] was 23.2 µM, the TGI [14] was > 100 µM and the TGI [15] was 21.1 µM. The TGI [16] was 60 µM, the TGI [18] was 29.5 µM and the TGI [20] was 32.7 µM. For the same molecule, the TGI [21] was > 100 µM, the TGI [22] was 57.7 µM and the TGI [23] was > 100 µM. The TGI [24] was 22.4 µM, the TGI [25] was 25.3 µM and the TGI [26] was 33.9 µM. It also gave a TGI [27] of 38.7 µM, a TGI [28] of 32.5 µM and a TGI [30] of 31 µM. For the same molecule, the TGI [31] was 50.5 µM, the TGI [32] was 83.5 µM and the TGI [34] was 55.1 µM. The TGI [35] was 30 µM, the TGI [36] was 29.5 µM and the TGI [37] was 68.5 µM. The TGI [38] was 41.2 µM, the TGI [39] was 34.3 µM and the TGI [40] was 30.6 µM. It also gave a TGI [41] of 31 µM, a TGI [42] of 34.7 µM and a TGI [53] of 20.5 µM. It also gave a TGI [45] of 31.1 µM, a TGI [46] of 48 µM and a TGI [57] of 34.7 µM. The TGI [47] was 31.3 µM, the TGI [48] was 36.1 µM and the TGI [58] was 33.6 µM. It also gave a TGI [49] of 65.1 µM and a TGI [50] of 43.1 µM.
